Experimental data reported in JP2017105729A, “ミトコンドリア病の治療剤” (Tohoku University NUC, priority 2015, dated 2017).

Experiments:
[1] = tested on: mitochondrial disease [ミトコンドリア病]; settings: reported in Patent Literature 2; cited from earlier work
[2] = tested on: erythropoietin [エリスロポエチン]; settings: reported in Patent Literature 2; cited from earlier work
[3] = tested on: Leber disease patient-derived fibroblasts [Leber病患者由来線維芽細胞]; assay: Suppression of oxidative-stress (BSO) induced cell death of Leber disease patient fibroblasts: cell viability (MTT assay, Cell Counting Kit-8); type: cell-based; settings: for minimal effective concentration: Fibroblast, BSO 100 μM 24 h, then compound (0.1, 0.3, 1, 3, 10 μM) 48 h, n=4, Fig. 1B, read-out: concentration at which the decrease in cell viability is suppressed
[4] = tested on: mitochondrial encephalomyopathy patients [ミトコンドリア脳筋症患者]; settings: cited from earlier work
[5] = tested on: erythropoietin, human liver cancer cell line Hep3B [エリスロポエチン産生ヒト肝臓癌細胞株Hep3B]; assay: Erythropoietin production in Hep3B cells in the presence of TNFα (ELISA); type: cell-based; settings: compound 3 μM with TNFα 220 μg/mL, 24 h, 20% O2; relative to DMSO; Fig. 2
[6] = tested on: Leber disease patient-derived fibroblasts [Leber病患者由来線維芽細胞]; assay: Suppression of cytotoxicity in BSO-treated Leber disease patient fibroblasts: released LDH activity (Cytotoxicity LDH Assay Kit-WST); type: cell-based; settings: BSO 100 μM 24 h, then compound (0.1, 0.3, 1, 3, 10 μM) 48 h, n=4; LDH release; Fig. 1C

O=C(CC(C(=O)O)c1c[nH]c2ccccc12)c1ccc(F)cc1F (centres unmarked) [4−(2,4−ジフルオロフェニル)−2−(1H−インドール−3−イル)−4−オキソ−ブタン酸]
therapeutic effect on mitochondrial disease [1]: ミトコンドリア病の治療効果 | effect of enhancing erythropoietin expression / promoting erythropoietin production [2]: エリスロポエチン発現増強効果

CCCCS(=N)(=O)CC[C@H](N)C(=O)O (stereo partly drawn) [BSO, L-Buthionine sulphoximine]
cell viability ([3]; BSO 100 μM (glutathione synthesis inhibitor) alone, Fig. 1A): 細胞生存率が低下する

CC1=NN(c2ccccc2)C(=O)C1 [エダラボン, 3−メチル−1−フェニル−2−ピラゾリン−5−オン]
effect of stopping enlargement of infarct [4]: 梗塞の拡大を停止する効果 | effect of suppressing edema [4]: 浮腫を抑制する効果

O=C(CC(C(=O)O)c1c[nH]c2cc(F)ccc12)c1ccc(F)cc1F (centres unmarked) [本件化合物#1, 4−(2,4−ジフルオロフェニル)−2−(6−フルオロ−1H−インドール−3−イル)−4−オキソブタン酸]
erythropoietin expression level [5]: 増加する

O=C(CC(C(=O)O)c1c[nH]c2cccc(Cl)c12)c1ccc(F)cc1F (centres unmarked) [本件化合物#5, 2−(4−クロロ−1H−インドール−3−イル)−4−(2,4−ジフルオロフェニル)−4−オキソブタン酸]
erythropoietin expression level [5]: 増加する

Cc1ccc2[nH]cc(C(CC(=O)c3ccc(F)cc3F)C(=O)O)c2c1 (centres unmarked) [本件化合物#6, 4−(2,4−ジフルオロフェニル)−2−(5−メチル−1H−インドール−3−イル)−4−オキソブタン酸]
minimal effective concentration [3]: ≥ 1 µM | concentration at which the cytotoxicity level is lowered [6]: ≥ 1 µM | erythropoietin expression level [5]: 増加する

O=C(CC(C(=O)O)c1c[nH]c2ccccc12)c1ccc(F)cc1 (centres unmarked) [比較例化合物#4, 4−(4−フルオロフェニル)−2−(1H−インドール−3−イル)−4−オキソ−ブタン酸]
minimal effective concentration [3]: ≥ 10 µM | concentration at which the cytotoxicity level is lowered [6]: ≥ 10 µM | therapeutic effect on mitochondrial disease [1]: ミトコンドリア病の治療効果 | effect of enhancing erythropoietin expression / promoting erythropoietin production [2]: エリスロポエチン産生の促進効果
